Legend:
[1] = tested on: tumor growth; details: animal experimental models; cited from earlier work
[2] = tested on: angiogenesis; details: cited from earlier work
[3] = tested on: stratum corneum of hairless rats; assay: Exfoliating activity in vivo after topical application on the back of hairless rats, histological evaluation; parameters: species or system rat; details: ten hairless rats, 10% CaTFA gel topical two times a day for ten days
Protocol: The formulations used had the following composition: Medicated formulation (D) CaTFA 10.00 g, Xanthan gum 2.00 g, Water q.s. to 100.00 g. Vehicle (V): Xanthan gum 2.00 g, Water q.s. to 100.00 g.
The experiments were carried out on 4 weeks old hairless male rats (HsdHanTM:RNU—Foxnl rnu, Harlan Italy srl, Correzzana, Italy). The back of ten rats was divided in two parts (section area: 2.5×3.0 cm) for topical application of the test formulations. A volume of 200 μl of the medicated formulation or the vehicle was applied two times a day for ten days. Fifteen hours after the last administration, the animals were sacrificed by cervical dislocation and the portion of skin submitted to the treatment was excised, carefully rinsed to remove the remaining formulation and submitted to histological evaluation. A sample of untreated skin of each animal was used as control (C). The histological evaluation was done as follows: the skin samples were fixed in 10% buffered formalin solution, dehydrated and embedded in JB-4 plastic resin. Coronal sections were cut by a microtome (Reichert-Jung) and mounted onto gelatin coated slides. Sections were stained with methylene blue/toluidine blue for microscopic examination to verify the absence of stratum corneum and the condition of the other parts of the skin. The specimens were assessed under Leitz Diaplan microscope.

[4] = tested on: solid tumor cells; details: in vitro; cited from earlier work
[5] = known; cited from earlier work

| Structure (SMILES) | tumor growth [1] | antiangiogenetic activity [2] | effective as keratolytic agent, share of treated animals [3] | cytotoxic activity [4] | toxicity [5] |
| --- | --- | --- | --- | --- | --- |
| O=C([O-])C(F)(F)F.O=C([O-])C(F)(F)F.[Ca+2] [Calcium trifluoroacetate] | inhibit tumor growth | relevant antiangiogenetic activity | 70% | in vitro cytotoxic activity on solid tumor cells | – |
| O=C([O-])C(F)(F)F.[Na+] [NaTFA, Sodium Trifluoroacetate] | – | – | – | – | devoid of significant toxicity |
